Assay results taken from ChEMBL document CHEMBL3244292, “Imidazo[4,5-f]quinolines. 2. A series of 9-(substituted amino)imidazo[4,5-f]quinolines as antitapeworm agents” (1977).
Calls of active or inactive are those of the source. The calls are words filed in the database; no cut-off is given here.

Columns and labels:
Rodentolepis nana [1] = assay: Anthelmintic activity against Hymenolepis nana infected in mouse assessed as reduction in worm burden at 300 mg/kg administered bid for 3 days relative to control; assay type: functional; set-up: scale not given: the % may be the effect or the level left
Rodentolepis nana [2] = assay: Anthelmintic activity against Hymenolepis nana infected in mouse assessed as reduction in worm burden at 100 mg/kg administered bid for 3 days relative to control; assay type: functional
Rodentolepis nana [3] = assay: Anthelmintic activity against Hymenolepis nana infected in mouse assessed as reduction in worm burden at 50 mg/kg administered bid for 3 days relative to control; assay type: functional; set-up: scale not given: the % may be the effect or the level left
Rodentolepis nana [4] = assay: Anthelmintic activity against Hymenolepis nana infected in mouse assessed as reduction in worm burden at 25 mg/kg administered bid for 3 days relative to control; assay type: functional
Rodentolepis nana [5] = assay: Anthelmintic activity against Hymenolepis nana infected in mouse assessed as reduction in worm burden at 10 mg/kg administered bid for 3 days relative to control; assay type: functional, organism-based; set-up: dose 10 mg/kg

For `Cc1cc(Nc2ccc(/N=N\c3ccccc3)cc2)c2c(ccc3nc[nH]c32)n1`, the Activity (Rodentolepis nana [1]) was 100% and the Activity (Rodentolepis nana [2]) was “inactive”.

In the case of `Cc1cc(Nc2ccc(C)c(Cl)c2)c2c(ccc3nc[nH]c32)n1`, the Activity (Rodentolepis nana [2]) is reported as 94%, the Activity (Rodentolepis nana [3]) is reported as 90% and the Activity (Rodentolepis nana [4]) is reported as “inactive”.

Molecule `Cc1cc(Nc2ccc(OCCC(C)C)c(OCCC(C)C)c2)c2c(ccc3nc[nH]c32)n1` has an Activity (Rodentolepis nana [2]) of 100%, an Activity (Rodentolepis nana [3]) of 100% and an Activity (Rodentolepis nana [4]) of 67%. For the same molecule, the Activity (Rodentolepis nana [5]) was “inactive”.

Work on `Cc1cc(Nc2ccc(N3CCN(Cc4ccccc4)CC3)c(Cl)c2)c2c(ccc3nc[nH]c32)n1` yielded an Activity (Rodentolepis nana [2]) of 100%, an Activity (Rodentolepis nana [3]) of 100% and an Activity (Rodentolepis nana [4]) of 77%. For the same molecule, the Activity (Rodentolepis nana [5]) was “inactive”.

`Cc1cc(Nc2ccc(-c3ccccc3)cc2)c2c(ccc3nc[nH]c32)n1` was tested, and the Activity (Rodentolepis nana [2]) was 100%, the Activity (Rodentolepis nana [3]) was 94% and the Activity (Rodentolepis nana [4]) was “inactive”.

For `CCCCOc1cc(Nc2cc(C)nc3ccc4nc[nH]c4c23)c(OCCCC)cc1Cl`, the Activity (Rodentolepis nana [2]) was 100%, the Activity (Rodentolepis nana [3]) was 84% and the Activity (Rodentolepis nana [4]) was 74%. The Activity (Rodentolepis nana [5]) was “inactive”.

For `Cc1cc(Nc2ccc(N3CCCCC3)c(Cl)c2)c2c(ccc3nc[nH]c32)n1`, the Activity (Rodentolepis nana [2]) was 100%, the Activity (Rodentolepis nana [3]) was 80% and the Activity (Rodentolepis nana [4]) was “inactive”.

For `Cc1ccc(Nc2cc(C)nc3ccc4nc[nH]c4c23)cc1`, the Activity (Rodentolepis nana [1]) was 100% and the Activity (Rodentolepis nana [2]) was “inactive”.

With `Cc1cc(Nc2ccc(N3CCCCC3)cc2)c2c(ccc3nc[nH]c32)n1` the Activity (Rodentolepis nana [2]) was 64%, the Activity (Rodentolepis nana [3]) was 62% and the Activity (Rodentolepis nana [4]) was “inactive”.

In the case of `Cc1cc(Nc2ccc(Cl)c(C(F)(F)F)c2)c2c(ccc3nc[nH]c32)n1`, the Activity (Rodentolepis nana [2]) is reported as 84%, the Activity (Rodentolepis nana [3]) is reported as 87% and the Activity (Rodentolepis nana [4]) is reported as “inactive”.

In the case of `CCCCc1ccc(Nc2cc(-c3ccccc3)nc3ccc4nc[nH]c4c23)cc1`, the Activity (Rodentolepis nana [1]) is reported as 69% and the Activity (Rodentolepis nana [2]) is reported as “inactive”.

In the case of `CSc1ccccc1Nc1cc(C)nc2ccc3nc[nH]c3c12`, the Activity (Rodentolepis nana [1]) is reported as 93% and the Activity (Rodentolepis nana [2]) is reported as “inactive”.

`CCCCc1ccc(Nc2cc(C)nc3ccc4[nH]cnc4c23)cc1` was tested, and the Activity (Rodentolepis nana [1]) was 100% and the Activity (Rodentolepis nana [2]) was “inactive”.

For `CCC(=O)c1ccc(Nc2cc(C)nc3ccc4nc[nH]c4c23)cc1`, the Activity (Rodentolepis nana [2]) was 75%, the Activity (Rodentolepis nana [3]) was 78% and the Activity (Rodentolepis nana [4]) was “inactive”.

With `COc1ccc(Nc2cc(C)nc3ccc4nc(C)[nH]c4c23)cc1` the Activity (Rodentolepis nana [1]) was 100% and the Activity (Rodentolepis nana [2]) was “inactive”.

Molecule `CC(=O)c1ccc(Nc2cc(C)nc3ccc4nc[nH]c4c23)cc1` has an Activity (Rodentolepis nana [2]) of 100%, an Activity (Rodentolepis nana [3]) of 100% and an Activity (Rodentolepis nana [4]) of 56%. The Activity (Rodentolepis nana [5]) was “inactive”.

For `Cc1cc(Nc2cccc(Cl)c2C)c2c(ccc3nc[nH]c32)n1`, the Activity (Rodentolepis nana [2]) was 100%, the Activity (Rodentolepis nana [3]) was 94% and the Activity (Rodentolepis nana [4]) was “inactive”.

With `COc1cc(OC)c(Nc2cc(C)nc3ccc4nc[nH]c4c23)cc1Cl` the Activity (Rodentolepis nana [2]) was 85%, the Activity (Rodentolepis nana [3]) was 82% and the Activity (Rodentolepis nana [4]) was “inactive”.

`Cc1cc(Nc2ccc(OCC(C)C)c(OCC(C)C)c2)c2c(ccc3nc[nH]c32)n1` showed an Activity (Rodentolepis nana [2]) of 100%, an Activity (Rodentolepis nana [3]) of 78% and an Activity (Rodentolepis nana [4]) of 77%. For the same molecule, the Activity (Rodentolepis nana [5]) was “inactive”.

`CCCCOc1ccc(Nc2cc(C)nc3ccc4nc[nH]c4c23)cc1OCCCC` was tested, and the Activity (Rodentolepis nana [2]) was 100%, the Activity (Rodentolepis nana [3]) was 95% and the Activity (Rodentolepis nana [4]) was “inactive”.

For `CCc1ccc(Nc2cc(C)nc3ccc4nc[nH]c4c23)cc1Cl`, the Activity (Rodentolepis nana [2]) was 100%, the Activity (Rodentolepis nana [3]) was 93% and the Activity (Rodentolepis nana [4]) was “inactive”.

`Cc1cc(Nc2cccc(Nc3ccc(N4CCCCC4)nc3)c2)c2c(ccc3nc[nH]c32)n1` was tested, and the Activity (Rodentolepis nana [1]) was 100% and the Activity (Rodentolepis nana [2]) was “inactive”.

With `CCOc1ccc(Nc2cc(C)nc3ccc4nc[nH]c4c23)cc1OCC` the Activity (Rodentolepis nana [2]) was 100%, the Activity (Rodentolepis nana [3]) was 84% and the Activity (Rodentolepis nana [4]) was “inactive”.

For `Cc1cc(Nc2ccccc2-c2ccccc2)c2c(ccc3nc[nH]c32)n1`, the Activity (Rodentolepis nana [1]) was 100% and the Activity (Rodentolepis nana [2]) was “inactive”.

In the case of `Cc1cc(Nc2ccc(N3CCN(C)CC3)c(Cl)c2)c2c(ccc3nc[nH]c32)n1`, the Activity (Rodentolepis nana [1]) is reported as 100% and the Activity (Rodentolepis nana [2]) is reported as “inactive”.

In the case of `Cc1ccc(Cl)c(Nc2cc(C)nc3ccc4nc[nH]c4c23)c1`, the Activity (Rodentolepis nana [1]) is reported as 98% and the Activity (Rodentolepis nana [2]) is reported as “inactive”.

With `CCCC(C)Oc1ccc(Nc2cc(C)nc3ccc4nc[nH]c4c23)cc1OC(C)CCC` (configuration not stated) the Activity (Rodentolepis nana [2]) was 100%, the Activity (Rodentolepis nana [3]) was 100% and the Activity (Rodentolepis nana [4]) was 92%. For the same molecule, the Activity (Rodentolepis nana [5]) was “inactive”.

`Cc1cc(Nc2ccc(C(C)C)cc2)c2c(ccc3nc[nH]c32)n1` was tested, and the Activity (Rodentolepis nana [2]) was 100%, the Activity (Rodentolepis nana [3]) was 53% and the Activity (Rodentolepis nana [4]) was “inactive”.

`CCCCCCOc1ccc(C(=N)N(CCCC)CCCC)c2ccccc12` [BUNAMIDINE] was tested, and the Activity (Rodentolepis nana [2]) was 100%, the Activity (Rodentolepis nana [3]) was 59% and the Activity (Rodentolepis nana [4]) was 30%. The Activity (Rodentolepis nana [5]) was “inactive”.

For `Cc1cc(Nc2cccc(Nc3ccc(N4CCN(C)CC4)nc3)c2)c2c(ccc3nc[nH]c32)n1`, the Activity (Rodentolepis nana [1]) was 64% and the Activity (Rodentolepis nana [2]) was “inactive”.

For `Cc1cc(Nc2ccc(N3CCCC3)c(Cl)c2)c2c(ccc3nc[nH]c32)n1`, the Activity (Rodentolepis nana [2]) was 100%, the Activity (Rodentolepis nana [3]) was 46% and the Activity (Rodentolepis nana [4]) was “inactive”.

For `CCOc1ccc(OC)cc1Nc1cc(C)nc2ccc3nc[nH]c3c12`, the Activity (Rodentolepis nana [2]) was 100%, the Activity (Rodentolepis nana [3]) was 76% and the Activity (Rodentolepis nana [4]) was “inactive”.

For `CCCCc1ccc(Nc2cc(C)nc3ccc4nc[nH]c4c23)cc1Cl`, the Activity (Rodentolepis nana [2]) was 100%, the Activity (Rodentolepis nana [3]) was 100% and the Activity (Rodentolepis nana [4]) was 65%.

For `CCCC(=O)c1ccc(Nc2cc(C)nc3ccc4nc[nH]c4c23)cc1`, the Activity (Rodentolepis nana [1]) was 100% and the Activity (Rodentolepis nana [2]) was “inactive”.

For `Cc1cc(Nc2cccc(Nc3ccccc3)c2)c2c(ccc3nc[nH]c32)n1`, the Activity (Rodentolepis nana [1]) was 81% and the Activity (Rodentolepis nana [2]) was “inactive”.

With `CCN(CC)CCOc1ccc(Nc2cc(C)nc3ccc4nc[nH]c4c23)cc1` the Activity (Rodentolepis nana [1]) was 100% and the Activity (Rodentolepis nana [2]) was “inactive”.

In the case of `COc1ccc(CNc2cccc(Nc3cc(C)nc4ccc5nc[nH]c5c34)c2)cc1`, the Activity (Rodentolepis nana [1]) is reported as 60% and the Activity (Rodentolepis nana [2]) is reported as “inactive”.

Work on `COc1cc(Nc2cc(C)nc3ccc4nc[nH]c4c23)c(OC)cc1Cl` yielded an Activity (Rodentolepis nana [2]) of 100%, an Activity (Rodentolepis nana [3]) of 72% and an Activity (Rodentolepis nana [4]) of 100%. For the same molecule, the Activity (Rodentolepis nana [5]) was “inactive”.

In the case of `Cc1cc(Nc2ccc3c(c2)OCO3)c2c(ccc3nc[nH]c32)n1`, the Activity (Rodentolepis nana [1]) is reported as 100% and the Activity (Rodentolepis nana [2]) is reported as “inactive”.

For `CCOc1cc(Nc2cc(C)nc3ccc4nc[nH]c4c23)c(OCC)cc1Cl`, the Activity (Rodentolepis nana [2]) was 100%, the Activity (Rodentolepis nana [3]) was 100% and the Activity (Rodentolepis nana [4]) was “inactive”.

For `Cc1cc(Nc2ccc(N3CCN(C)CC3)cc2)c2c(ccc3nc[nH]c32)n1`, the Activity (Rodentolepis nana [1]) was 80% and the Activity (Rodentolepis nana [2]) was “inactive”.

In the case of `CCOc1ccc(OC)c(Nc2cc(C)nc3ccc4nc[nH]c4c23)c1`, the Activity (Rodentolepis nana [2]) is reported as 100%, the Activity (Rodentolepis nana [3]) is reported as 89% and the Activity (Rodentolepis nana [4]) is reported as “inactive”.

In the case of `Cc1cc(Nc2ccc(OC(C)C)c(OC(C)C)c2)c2c(ccc3nc[nH]c32)n1`, the Activity (Rodentolepis nana [2]) is reported as 100%, the Activity (Rodentolepis nana [3]) is reported as 94% and the Activity (Rodentolepis nana [4]) is reported as “inactive”.

For `CCOc1cc(OCC)c(OCC)cc1Nc1cc(C)nc2ccc3nc[nH]c3c12`, the Activity (Rodentolepis nana [2]) was 89%, the Activity (Rodentolepis nana [3]) was 80% and the Activity (Rodentolepis nana [4]) was “inactive”.

For `CCCCOc1ccc(Nc2cc(C)nc3ccc4[nH]cnc4c23)cc1`, the Activity (Rodentolepis nana [1]) was 100% and the Activity (Rodentolepis nana [2]) was “inactive”.

With `Cc1cc(Nc2ccc(C)c([N+](=O)[O-])c2)c2c(ccc3nc[nH]c32)n1` the Activity (Rodentolepis nana [1]) was 83% and the Activity (Rodentolepis nana [2]) was “inactive”.

`CCOc1ccc(Nc2cc(C)nc3ccc4nc[nH]c4c23)cc1Cl` was tested, and the Activity (Rodentolepis nana [2]) was 100%, the Activity (Rodentolepis nana [3]) was 50% and the Activity (Rodentolepis nana [4]) was “inactive”.

`Cc1cc(Nc2cccc(C(F)(F)F)c2)c2c(ccc3nc[nH]c32)n1` was tested, and the Activity (Rodentolepis nana [1]) was 100% and the Activity (Rodentolepis nana [2]) was “inactive”.
